Among the data in PubChem BioAssay (NCI) are TGI and GI50 values, retold here.

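Tested at 5 concentrations; 48 h exposure; 96-well plates; endpoints linearly interpolated, else capped at highest concentration. The concentration for 50% growth inhibition is given as GI50. TGI: concentration producing complete growth inhibition.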 Some results are limits rather than exact numbers.

For one experiment, the system named is MDA-MB-231 breast. In words: NCI tumour cell line growth inhibition, 48 h.
`COC(=O)C1=C(C)NC(C)=C(C(=O)OCCCN2CCC(c3ccccc3)(c3ccccc3)CC2)C1c1cccc([N+](=O)[O-])c1` (stereo not drawn) had a TGI of 2.65 µM.

`COc1ccc([C@H]2[C@@H](F)C(=O)N2c2cc(OC)c(OC)c(OC)c2)cc1F`: the GI50 is 0.355 µM and the TGI was above 100 µM.

For the molecule `N=Nc1c(OC(=O)Nc2cccc(Cl)c2)[nH]c2ccccc12`, the TGI came to 26.7 µM.

`CC1(C)C2CCC(=O)C1CC2` (stereo not drawn) returned a TGI above 100 µM.

`Fc1cc2[nH]ncc2c2c3c(c(-c4cn[nH]c4)nc12)CCCC3`: the GI50 is 1.5 µM and the TGI is 5.24 µM.

Consider `CCN(CC)c1ccc(-c2cc(-c3cc(OC)c(OC)c(OC)c3)nc(N3CCOCC3)c2C#N)cc1`, for which the GI50 is 0.519 µM and the TGI was above 20.8 µM.

`C=C(Br)C(C)(Br)CCC(Br)C(C)(C)Cl` (stereo not drawn) came in with a TGI of 34.8 µM.

Consider `O=C(CCc1nnc2sc(-c3ccc(Cl)cc3Cl)nn12)c1nc2ncccc2[nH]1`, for which the GI50 was 1.74 µM and the TGI stood at 4.36 µM.

Turning to `ClCc1cccc(Cn2cnc3ncnc(Cl)c32)c1`, the GI50 was 1.72 µM and the TGI was 3.4 µM.

Consider `OCC#Cc1ccccc1C#Cc1ccccc1`, for which the GI50 was 3.26 µM and the TGI turned out to be 16.4 µM.

As to `NS(=O)(=O)c1cc(Br)c(N=Nc2ccc(O)c3ncccc23)c(Br)c1`, the TGI was above 100 µM.

On to `O=C(Nc1ccc(Cl)cc1)c1cccc(NC2=C(Cl)C(=O)N(Cc3ccccc3)C2=O)c1`, for which the GI50 is 4.44 µM and the TGI came to 17.6 µM.

`O=C(/C=C/c1ccncc1)c1cc(Cl)ccc1O`: the GI50 is 18.6 µM and the TGI turned out to be 42.3 µM.

Take `Cc1cc(/C=C/c2ccc3cc(N(C)C)ccc3[n+]2C)c(C)n1-c1ccccc1`: the GI50 is 0.193 µM and the TGI is 1.09 µM.

Take `CC[C@H](Nc1ncnc2nc[nH]c12)c1oc2ccccc2c(=O)c1-c1cccc(F)c1`: the GI50 is 16.6 µM and the TGI turned out to be 50.3 µM.

On to `COc1cc(NCc2ccc3oc(=O)c(-c4ccccc4)nc3c2)cc(OC)c1OC`, for which the TGI was above 10 µM.

With `COc1ccc(-c2nnc(COc3ccc(NC(=O)Nc4cc(C(F)(F)F)cc(C(F)(F)F)c4)cc3F)o2)cc1`, the GI50 was 1.99 µM and the TGI came out at 4.54 µM.

Consider `COC1=CC(=O)C(C2CC(=O)c3c(O)cc(O)cc3O2)=CC1=O` (stereo not drawn), for which the TGI is 29.1 µM.

For the molecule `COc1cc(/C=C/c2cc(O)c(C(C)=O)c(O)c2)cc2c1O[C@]1(C)CC[C@@H](O)C(C)(C)[C@H]1C2`, the GI50 was 6.26 µM and the TGI amounted to 93 µM.

As to `CC(C)C(C)/C=C\C(C)C1CCC2C3=CC=C4CC(O)CCC4(C)C3CCC21C` (stereo not drawn), the TGI was above 61.3 µM.

For `Cc1cc2c(cc1Cl)SC(N(N(C)C)S(=O)(=O)c1ccc(Cl)cc1)=NS2(=O)=O`, the GI50 is 22.5 µM and the TGI is 55 µM.

A further experiment deals with OVCAR-5 ovarian. In words: NCI tumour cell line growth inhibition, 48 h.
Molecule `COC(=O)C1=C(C)NC(C)=C(C(=O)OCCCN2CCC(c3ccccc3)(c3ccccc3)CC2)C1c1cccc([N+](=O)[O-])c1` (stereo not drawn) yielded a TGI of 7.3 µM.

As for `COc1ccc([C@H]2[C@@H](F)C(=O)N2c2cc(OC)c(OC)c(OC)c2)cc1F`, the GI50 was 0.423 µM and the TGI was above 100 µM.

`N=Nc1c(OC(=O)Nc2cccc(Cl)c2)[nH]c2ccccc12` showed a TGI of 31.2 µM.

The molecule `CC1(C)C2CCC(=O)C1CC2` (stereo not drawn) showed a TGI above 100 µM.

With `Fc1cc2[nH]ncc2c2c3c(c(-c4cn[nH]c4)nc12)CCCC3`, the GI50 is 2.13 µM and the TGI stood at 12.2 µM.

With `CCN(CC)c1ccc(-c2cc(-c3cc(OC)c(OC)c(OC)c3)nc(N3CCOCC3)c2C#N)cc1`, the GI50 was 1.42 µM and the TGI is above 68.2 µM.

In the case of `C=C(Br)C(C)(Br)CCC(Br)C(C)(C)Cl` (stereo not drawn), the TGI turned out to be 39.7 µM.

Regarding `O=C(CCc1nnc2sc(-c3ccc(Cl)cc3Cl)nn12)c1nc2ncccc2[nH]1`, the GI50 was 2.33 µM and the TGI was found to be 5.29 µM.

On to `ClCc1cccc(Cn2cnc3ncnc(Cl)c32)c1`, for which the GI50 was 6.74 µM and the TGI was 19.8 µM.

Consider `OCC#Cc1ccccc1C#Cc1ccccc1`, for which the GI50 was 14.4 µM and the TGI came out at 28.3 µM.

Turning to `NS(=O)(=O)c1cc(Br)c(N=Nc2ccc(O)c3ncccc23)c(Br)c1`, the TGI was above 100 µM.

As for `O=C(Nc1ccc(Cl)cc1)c1cccc(NC2=C(Cl)C(=O)N(Cc3ccccc3)C2=O)c1`, the GI50 is 13.4 µM and the TGI is 36.6 µM.

Consider `O=C(/C=C/c1ccncc1)c1cc(Cl)ccc1O`, for which the GI50 is 24 µM and the TGI came out at 50.7 µM.

In the case of `Cc1cc(/C=C/c2ccc3cc(N(C)C)ccc3[n+]2C)c(C)n1-c1ccccc1`, the GI50 was 0.688 µM and the TGI was found to be 12.4 µM.

Take `CC[C@H](Nc1ncnc2nc[nH]c12)c1oc2ccccc2c(=O)c1-c1cccc(F)c1`: the GI50 was 42.5 µM and the TGI was above 100 µM.

Molecule `COc1cc(NCc2ccc3oc(=O)c(-c4ccccc4)nc3c2)cc(OC)c1OC` gave a TGI above 10 µM.

Turning to `COc1ccc(-c2nnc(COc3ccc(NC(=O)Nc4cc(C(F)(F)F)cc(C(F)(F)F)c4)cc3F)o2)cc1`, the GI50 was 2.76 µM and the TGI came to 9.49 µM.

As to `COC1=CC(=O)C(C2CC(=O)c3c(O)cc(O)cc3O2)=CC1=O` (stereo not drawn), the TGI was 41.4 µM.

With `COc1cc(/C=C/c2cc(O)c(C(C)=O)c(O)c2)cc2c1O[C@]1(C)CC[C@@H](O)C(C)(C)[C@H]1C2`, the GI50 is 16.3 µM and the TGI was found to be 75.5 µM.

Regarding `CC(C)C(C)/C=C\C(C)C1CCC2C3=CC=C4CC(O)CCC4(C)C3CCC21C` (stereo not drawn), the TGI is above 100 µM.

`Cc1cc2c(cc1Cl)SC(N(N(C)C)S(=O)(=O)c1ccc(Cl)cc1)=NS2(=O)=O`: the GI50 was 53.8 µM and the TGI is above 100 µM.
